# Test system: SPOP MATH domain
# Test: Linear free energy relationship (LFER) analysis of binding to SPOP MATH wildtype and mutant variants
# Details: LFER over MATH wildtype and mutant variants
# Text: A powerful method used to address the mechanism of binding between ligands is to study the effect of structural perturbation on the transition and ground states. This approach, classically denoted as Leffler or Linear Free Energy Relationship (LFER) analysis, aims at analyzing the correlation of the change in activation free energy to the change in equilibrium free energy; LFER analysis has been used in organic chemistry, protein folding, enzymology, and protein–protein interaction studies to decipher the position of the transition state of a reaction along the reaction coordinates. The analysis of the dependences of the microscopic association and dissociation rate constants over the equilibrium constant of each MATH variant to Puc and MacroH2A are reported in Figure 5.
# Figure 5 Linear free energy relationship for the binding of MATH wildtype and mutant variants to the peptides Puc (panels (A,B)) and MacroH2A (panels (C,D)). Panels (A,C) represent the dependences of the microscopic association rate constant kon on the equilibrium dissociation constant. Panels (B,D) represent the dependences of the microscopic dissociation rate constant koff on the equilibrium dissociation constant. The blue and red dots represent the dependences of kon or koff on the equilibrium dissociation constant (KD), respectively.
Sequence,slope of log koff versus log KD,slope of log kon vs. log KD
DEVTSTTSSS [Puc],0.36 ± 0.09,−0.64 ± 0.09
KAASADSTTEGTPAD [MacroH2A],0.02 ± 0.11,−0.98 ± 0.11
